Tests used:
Type in all cases: in vivo
[1] = tested on: flies (family Muscidae); experiment: Anti-procreant comparison tests (sexual sterility or oviposition inhibition); conditions: for inducing sexual sterility or inhibiting oviposition: comparison tests, Examples 6-9; for activity in the method of the invention (ineffective compounds): general statement of the description
Protocol: (§1) The compound to be tested was administered in a standard fly food containing 6 parts of sugar, 6 parts of powdered non-fat dry milk, and 1 part of powdered egg yolk. Treated food was prepared by mixing an appropriate amount of a solution or suspension of CBCP in acetone with a batch of the food. The acetone was evaporated (4-6 hours) and the dry material was repulverized.
Oviposition inhibition tests: Samples of treated food with a container of water were placed in cages containing 100 newly-emerged adult flies (family Muscidae). After the flies had been exposed to the treated diet for 6-7 days, 1/2 inch of moist standard fly larva-rearing medium (CSMA) in souffle cups was placed in the cages for oviposition. After 4-6 hours, the cup was removed and examined for eggs. If no eggs were laid, the medium was offered again at intervals of 1 or 2 days until it had been offered three times or the flies had oviposited.
(§2) Chemosterilancy tests: If eggs were laid in the above tests, the cups were filled with water and stirred to break up the egg masses. A random sample of 100 eggs from each cup was collected and placed on a small piece of black cloth which was then laid on top of moist larva-rearing medium in a rearing container. Observations were made to determine percentage of egg hatch and pupal development.
These flies were maintained on untreated fly food. After 5 days, cups containing the larval-rearing medium was provided as previously described and a 100-egg sample was collected and place on moist larve-rearing medium. About a week after oviposition, examination was made to determine the percentage of hatched eggs and of pupae developed.
For purpose of comparison the above-described tests were applied to 2-benzyl-4-t-butylphenol and 2-(α-methylbenzyl)-4-t-butylphenol.
For purposes of comparison the above-described tests were applied to 2,6-di-t-butyl-4-(4-methoxybenzyl) phenol and 2,6-di-t-butyl-4-(α-methyl-4-methoxybenzyl)phenol, both compounds being ineffective in inducing sexual sterility or in inhibiting oviposition.
For purposes of comparison the following compounds were tested and found to be ineffective in inducing sexual sterility or in inhibiting oviposition: 2-(4-methoxybenzyl)-3,4-methylenedioxyphenol, (α-methylbenzyl)-3,4-methylenedioxy-6-methoxybenzene, (α,α-dimethylbenzyl)-3,4-methylenedioxy-6-methoxybenzene, (α,α-dimethylbenzyl)-3,4-methylenedioxy-6-ethoxybenzene, (α,α-dimethylbenzyl)-3,4-methylenedioxy-6-n-propoxybenzene, (α,α-dimethylbenzyl)-3,4-methylenedioxy-6-n-butoxybenzene, (α,α-dimethylbenzyl)-3,4-methylenedioxy-6-n-pentoxybenzene, (α-vinylbenzyl)-3,4-methylenedioxy-6-methoxybenzene, (α-vinylbenzyl)-3,4-methylenedioxy-6-ethoxybenzene, (α-vinylbenzyl)-3,4-methylenedioxy-6-n-propoxybenzene.

[2] = tested on: flies (family Muscidae); experiment: Oviposition inhibition tests (treated fly food; Examples 6-9)
Protocol: The compound to be tested was administered in a standard fly food containing 6 parts of sugar, 6 parts of powdered non-fat dry milk, and 1 part of powdered egg yolk. Treated food was prepared by mixing an appropriate amount of a solution or suspension of CBCP in acetone with a batch of the food. The acetone was evaporated (4-6 hours) and the dry material was repulverized. Oviposition inhibition tests: Samples of treated food with a container of water were placed in cages containing 100 newly-emerged adult flies (family Muscidae). After the flies had been exposed to the treated diet for 6-7 days, 1/2 inch of moist standard fly larva-rearing medium (CSMA) in souffle cups was placed in the cages for oviposition. After 4-6 hours, the cup was removed and examined for eggs. […] The procedure outlined in Example 6 was followed using a Group II compound. The procedure outlined in Example 6 was followed using Group III compounds. The results are summarized below: The procedure outlined in Example 6 was followed substituting a Group IV compound for those of Group I. The table below provides a summary of results.

[3] = tested on: early fourth-stage larvae of the common malaria mosquito (Anopheles quadrimaculatus); experiment: Growth-inhibition tests on mosquito larvae; conditions: in water; corrected by Abbott's formula
Protocol: The compound to be tested was added to one liter of water until the final concentration thereof was a growth-inhibiting amount. Fifty early fourth-stage larvae of the common malaria mosquito (Anopheles quadrimaculatus) were placed on this water. Larval food was administered daily. Dead larvae and pupae were removed, counted, and discarded daily. Live pupae were removed, rinsed, and transferred to a cup of distilled water. The cup was placed in an emergence cage, and the emerging adults, if any, were maintained on a sugar-water diet.
The effectiveness of the compound in inhibiting growth was determined by adding the number of dead larvae and pupae and the number of adults that were dead, unable to complete eclosion, and malformed. This sum was corrected by Abbott's formula (to adjust for the number of larvae or pupae which would die naturally) and designated as the GI (growth inhibition). The results are expressed as GI-90, i.e., the concentration of growth inhibitor in ppm that would prevent and/or retard growth in 90% of the treated larvae.

[4] = tested on: flies (family Muscidae); experiment: Chemosterilancy tests (egg hatch and pupal development; Examples 6-9)
Protocol: as §1, §2
The procedure outlined in Example 6 was followed using a Group II compound.
The procedure outlined in Example 6 was followed using Group III compounds. The results are summarized below:
The procedure outlined in Example 6 was followed substituting a Group IV compound for those of Group I. The table below provides a summary of results.

Compound	Mortality, parent generation ([2]; 0.05% in food) [%]	Mortality, parent generation ([2]; 0.1% in food) [%]	Mortality, parent generation ([2]; 0.25% in food) [%]	Mortality, parent generation ([2]; 0.5% in food) [%]	GI-90 (concentration of growth inhibitor that would prevent and/or retard growth in 90% of the treated larvae) [3] [ppm]	Egg hatch ([4]; 0.05% in food) [%]	Pupal development ([4]; 0.05% in food) [%]	Egg hatch ([4]; 0.1% in food) [%]	Pupal development ([4]; 0.1% in food) [%]	Egg hatch ([4]; 0.25% in food) [%]	Pupal development ([4]; 0.25% in food) [%]	Egg hatch ([4]; 0.5% in food) [%]	Pupal development ([4]; 0.5% in food) [%]	other results
(α-Vinylbenzyl)-3,4-methylenedioxy-6-n-propoxybenzene [GG]														inducing sexual sterility or inhibiting oviposition [1]: ineffective
2-(4-methoxybenzyl)-3,4-methylenedioxyphenol [reference compound]														inducing sexual sterility or inhibiting oviposition [1]: ineffective
COc1ccc(C(C)c2cc(C(C)(C)C)c(O)c(C(C)(C)C)c2)cc1 (stereo not drawn) [Compound G, 2,6-Di-t-butyl-4-(α-methyl-4-methoxybenzyl)phenol]														inducing sexual sterility or inhibiting oviposition [1]: ineffective; activity in the method of the invention (ineffective compounds) [1]: ineffective
COc1ccc(Cc2cc3c(cc2OCC(C)C)OCO3)cc1 [Q, (4-Methoxybenzyl)-3,4-methylenedioxy-6-iso-butoxybenzene]	0	0	0	90	0.082	28	28	0	0	0	0			
COc1c(C)cc(Cc2ccc3c(c2)OCO3)cc1C [JJ, (3,5-Dimethyl-4-methoxybenzyl)-3,4-methylenedioxybenzene]	0	0	0	70	0.6	70	70	6	6	0	0			
CCCc1cc2c(cc1Cc1ccc(OC)cc1)OCO2 [DD, (4-Methoxybenzyl)-3,4-methylenedioxy-6-n-propylbenzene]	0	0	0		0.2	0	0	0	0					Mortality, parent generation ([2]; 0.025% in food): 0%; Egg hatch ([4]; 0.025% in food): 7%; Pupal development ([4]; 0.025% in food): 7%
COc1ccc(Cc2cc3c(cc2O)OCO3)cc1 [6-(4-methoxybenzyl)-3,4-methylenedioxyphenol, reference compound]														activity in the method of the invention (ineffective compounds) [1]: ineffective
(α,α-Dimethylbenzyl)-3,4-methylenedioxy-6-methoxybenzene														inducing sexual sterility or inhibiting oviposition [1]: ineffective
COc1cc2c(cc1C(C)c1ccccc1)OCO2 (stereo not drawn) [Compound T, (α-Methylbenzyl)-3,4-methylenedioxy-6-methoxybenzene]			60	42	0.6					56	56	0	0	
CCCOc1cc2c(cc1C(C)c1ccccc1)OCO2 (stereo not drawn) [U, (α-Methylbenzyl)-3,4-methylenedioxy-6-n-propoxybenzene]	0	0	0	0	0.3	0	0	0	0	0	0	0	0	Mortality, parent generation ([2]; 0.025% in food): 0%; Mortality, parent generation ([2]; 1.0% in food): 0%; Egg hatch ([4]; 0.025% in food): 42%; Pupal development ([4]; 0.025% in food): 42%; Egg hatch ([4]; 1.0% in food): 0%; Pupal development ([4]; 1.0% in food): 0%
CC(c1ccccc1)c1cc(C(C)(C)C)c(O)c(C(C)(C)C)c1 (stereo not drawn) [E, 2,6-Di-t-butyl-4-(α-methylbenzyl)phenol]		0	0	0	0.072			36	36	0	0	0	0	Mortality, parent generation ([2]; 1.0% in food): 0%; Oviposition ([2]; 1.0% in food): Normal; Egg hatch ([4]; 1.0% in food): 0%; Pupal development ([4]; 1.0% in food): 0%
CCCCOc1cc2c(cc1C(C)c1ccc(OC)cc1)OCO2 (stereo not drawn) [J, (α-methyl-4-methoxybenzyl)-3,4-methylenedioxy-6-n-butoxybenzene]	0				0.025	3	3							Mortality, parent generation ([2]; 0.01% in food): 0%; Mortality, parent generation ([2]; 0.025% in food): 0%; Egg hatch ([4]; 0.025% in food): 61%; Pupal development ([4]; 0.025% in food): 61%
CCOc1c(C)cc(Cc2ccc3c(c2)OCO3)cc1C [KK]			0	85	0.9					85	85			
CCCCCOc1cc2c(cc1C(C)c1ccc(OC)cc1)OCO2 (stereo not drawn) [K, (α-methyl-4-methoxybenzyl)-3,4-methylenedioxy-6-n-pentoxybenzene]		0	0	0	0.060			70	70	0	0	0	0	Mortality, parent generation ([2]; 1.0% in food): 0%; Egg hatch ([4]; 1.0% in food): 0%; Pupal development ([4]; 1.0% in food): 0%
COc1ccc(Cc2cc3c(cc2OC(C)C)OCO3)cc1 [O, (4-Methoxybenzyl)-3,4-methylenedioxy-6-iso-propoxybenzene]	0		0	80	0.8	48	48			0	0			
CCCCOc1cc2c(cc1Cc1ccc(OC)cc1)OCO2 [P, (4-Methoxybenzyl)-3,4-methylenedioxy-6-n-butoxybenzene]	0	0	0	0	0.047	36	36	10	10	0	0	0	0	
